US12600732B2, “Bifunctional compounds for degrading BTK via ubiquitin proteosome pathway” (NURIX THERAPEUTICS, INC., priority 2019, dated 2026)

Columns and labels:
Rec-1 cells = test: Cell viability assay (CellTiter-Glo), Rec-1 cells; format: cell-based
Excerpt: (§1) This example evaluates effects of CTM-mediated degradation on cell viability. […] Mino and Rec-1 are models of Mantle Cell Lymphoma, which is sensitive to IMiDs.

primary human T cells [1] = test: T cell activation assay, CD25 and CD69 staining (flow cytometry); format: cell-based; settings: for CD25 Staining Anti-CD3/Anti-CD28 Stimulation / CD69 Staining Anti-CD3/Anti-CD28 Stimulation: fold-change of response relative to baseline; for expression of CD25 and CD69 compared to baseline (anti-CD3/anti-CD28 stimulation alone): primary human T cells
Procedure: (§2) This example evaluates whether CTMs with IMiD activity affect T cell activation. […] These assays were performed to assess whether BTK CTMs with and without IMiD activity affected activation of primary human T cells after stimulation of the T cell receptor with anti-CD3/ati-CD28 stimulation. T cell activation was measured by IL-2 secretion (ELISA assay) and upregulation of activation markers CD25 and CD69 on the surface of T cells (flow cytometry). Data are presented as the fold-change of response relative to baseline (stimulation with anti-CD3/anti-CD28 stimulation in the absence of compound).

primary human T cells [2] = test: T cell activation assay, IL-2 secretion (ELISA); format: cell-based; settings: for IL-2 secretion compared to baseline (anti-CD3/anti-CD28 stimulation alone): primary human T cells
Procedure: as §2

TMD8 cells = test: Cell viability assay (CellTiter-Glo), TMD8 cells; settings: for EC50: Homo sapiens, TMD8, 72 h; for EMAX (% viable cells): TMD8 cells, treatment time 72 h
TMD8 C481S cells = test: Cell viability assay (CellTiter-Glo), TMD8 C481S cells; settings: for EC50: Homo sapiens, TMD8, 72 h; for EMAX (% viable cells): TMD8 C481S cells, treatment time 72 h
Mino cells = test: Cell viability assay (CellTiter-Glo), Mino cells; format: cell-based; settings: Mino cells, treatment time 72 h
Excerpt: as §1

Aiolos = target: T1, Aiolos (Homo sapiens, UniProt Q96SW2+Q9UKT9); test: Aiolos degradation in Mantle Cell Lymphoma lines (flow cytometry); format: cell-based; settings: treatment time 24 h
T1 construct: endogenous in cells; host or cells: Mino, Rec-1
Excerpt: (§3) Ikaros and Aiolos Degradation in Mantle Cell Lymphoma Lines (Ikaros and Aiolos Flow Cytometry)
(§4) This example evaluates the IMiD activity of CTMs in cellular models of Mantle Cell Lymphoma (MCL). […] These assays are to determine potency of CTMs for degrading IMiD neo-substrates in cellular models of MCL and to generate data to inform efficacy studies in MCL xenografts.

Ikaros = target: T2, Ikaros (Homo sapiens, UniProt Q13422+Q96SW2); test: Ikaros degradation in Mantle Cell Lymphoma lines (flow cytometry); format: cell-based; settings: treatment time 24 h
T2 construct: endogenous in cells; host or cells: Mino, Rec-1
Excerpt: as §3, §4

BTK = BTK (Homo sapiens, UniProt Q06187); test: BTK remaining in TMD8 WT mouse xenograft study; format: in vivo; design: from tissue; host or cells: TMD8 xenograft in CB.17 SCID mice; settings: IP, QD
Excerpt: Efficacy in Mouse Xenograft Models
(§5) This example examines the activity of various BTK CTMs in relevant disease models, including the WT and C481S TMD8 model, which models B cell malignancies with/without inhibitor-driven BTK mutations at C481.

TMD8 tumor cells = test: TMD8 xenograft efficacy study (wild-type BTK); format: in vivo, mouse; settings: TMD8 WT, IP, QD
Procedure: […] Tumor growth inhibition (% TGI) were calculated on the final day of measurement using the equation [1−(T−T0/C−T0)]×100, where T and C represent the mean size of tumors in the treated (T) and control (C) groups, and T0 refers to the tumor size at randomization.
as §5

[3] = 1.4 nM, fold-change of response relative to baseline
[4] = 37 nM, fold-change of response relative to baseline
[5] = 333 nM, fold-change of response relative to baseline (stimulation without compound)

T2 sequence (Q13422 whole entry): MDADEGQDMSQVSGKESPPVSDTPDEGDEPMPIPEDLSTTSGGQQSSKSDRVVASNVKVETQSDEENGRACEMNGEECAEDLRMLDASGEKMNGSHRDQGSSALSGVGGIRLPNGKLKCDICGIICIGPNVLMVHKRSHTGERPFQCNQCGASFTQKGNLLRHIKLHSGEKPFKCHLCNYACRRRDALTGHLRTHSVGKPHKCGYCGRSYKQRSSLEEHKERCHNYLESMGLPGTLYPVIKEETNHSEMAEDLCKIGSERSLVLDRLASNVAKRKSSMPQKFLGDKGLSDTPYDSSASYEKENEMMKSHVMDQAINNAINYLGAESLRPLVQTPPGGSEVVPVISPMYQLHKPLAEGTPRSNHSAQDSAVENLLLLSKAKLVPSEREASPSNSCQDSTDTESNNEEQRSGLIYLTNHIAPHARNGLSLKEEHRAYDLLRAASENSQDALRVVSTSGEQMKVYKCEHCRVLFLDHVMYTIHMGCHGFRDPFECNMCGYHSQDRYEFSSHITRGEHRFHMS
T2 sequence (Q96SW2 whole entry): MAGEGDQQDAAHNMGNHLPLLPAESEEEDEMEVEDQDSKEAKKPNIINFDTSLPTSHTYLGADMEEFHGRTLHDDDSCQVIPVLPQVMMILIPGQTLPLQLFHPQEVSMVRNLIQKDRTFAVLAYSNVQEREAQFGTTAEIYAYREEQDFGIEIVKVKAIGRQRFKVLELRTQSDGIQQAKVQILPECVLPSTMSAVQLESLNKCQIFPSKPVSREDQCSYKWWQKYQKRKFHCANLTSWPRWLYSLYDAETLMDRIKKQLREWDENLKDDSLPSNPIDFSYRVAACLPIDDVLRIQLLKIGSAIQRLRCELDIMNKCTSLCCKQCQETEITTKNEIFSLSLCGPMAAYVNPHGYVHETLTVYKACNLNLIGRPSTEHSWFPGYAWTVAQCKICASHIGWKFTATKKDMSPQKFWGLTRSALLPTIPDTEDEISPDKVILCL
T2 sequence (Q16531 whole entry partner): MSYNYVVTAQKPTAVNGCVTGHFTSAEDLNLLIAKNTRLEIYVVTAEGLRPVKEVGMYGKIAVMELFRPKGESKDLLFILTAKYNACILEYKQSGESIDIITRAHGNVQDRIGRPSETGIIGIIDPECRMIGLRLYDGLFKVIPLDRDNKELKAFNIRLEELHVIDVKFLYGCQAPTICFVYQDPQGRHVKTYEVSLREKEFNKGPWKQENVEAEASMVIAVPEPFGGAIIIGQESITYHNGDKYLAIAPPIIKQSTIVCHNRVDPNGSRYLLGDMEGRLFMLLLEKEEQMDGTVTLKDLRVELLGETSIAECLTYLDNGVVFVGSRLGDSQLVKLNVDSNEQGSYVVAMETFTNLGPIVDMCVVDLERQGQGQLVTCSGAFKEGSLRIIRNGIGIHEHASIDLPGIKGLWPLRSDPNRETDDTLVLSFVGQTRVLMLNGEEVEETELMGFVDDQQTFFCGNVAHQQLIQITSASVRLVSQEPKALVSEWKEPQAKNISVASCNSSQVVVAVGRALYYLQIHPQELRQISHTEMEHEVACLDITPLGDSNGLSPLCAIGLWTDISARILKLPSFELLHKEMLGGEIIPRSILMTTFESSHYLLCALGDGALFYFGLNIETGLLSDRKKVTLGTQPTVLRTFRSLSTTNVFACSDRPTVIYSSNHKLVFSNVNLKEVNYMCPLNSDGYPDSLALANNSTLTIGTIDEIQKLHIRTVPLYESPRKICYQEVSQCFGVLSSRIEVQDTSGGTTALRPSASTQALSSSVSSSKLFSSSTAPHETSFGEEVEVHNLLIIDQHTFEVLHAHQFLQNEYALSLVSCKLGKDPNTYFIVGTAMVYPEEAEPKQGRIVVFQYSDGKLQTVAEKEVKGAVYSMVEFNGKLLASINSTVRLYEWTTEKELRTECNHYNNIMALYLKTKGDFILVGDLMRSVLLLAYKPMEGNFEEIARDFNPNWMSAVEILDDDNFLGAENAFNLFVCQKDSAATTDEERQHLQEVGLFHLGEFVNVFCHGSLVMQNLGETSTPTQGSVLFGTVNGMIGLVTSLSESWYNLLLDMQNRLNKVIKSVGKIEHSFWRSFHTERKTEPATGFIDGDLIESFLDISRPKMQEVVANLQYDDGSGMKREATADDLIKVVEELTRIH
T1 sequence (Q9UKT9 whole entry): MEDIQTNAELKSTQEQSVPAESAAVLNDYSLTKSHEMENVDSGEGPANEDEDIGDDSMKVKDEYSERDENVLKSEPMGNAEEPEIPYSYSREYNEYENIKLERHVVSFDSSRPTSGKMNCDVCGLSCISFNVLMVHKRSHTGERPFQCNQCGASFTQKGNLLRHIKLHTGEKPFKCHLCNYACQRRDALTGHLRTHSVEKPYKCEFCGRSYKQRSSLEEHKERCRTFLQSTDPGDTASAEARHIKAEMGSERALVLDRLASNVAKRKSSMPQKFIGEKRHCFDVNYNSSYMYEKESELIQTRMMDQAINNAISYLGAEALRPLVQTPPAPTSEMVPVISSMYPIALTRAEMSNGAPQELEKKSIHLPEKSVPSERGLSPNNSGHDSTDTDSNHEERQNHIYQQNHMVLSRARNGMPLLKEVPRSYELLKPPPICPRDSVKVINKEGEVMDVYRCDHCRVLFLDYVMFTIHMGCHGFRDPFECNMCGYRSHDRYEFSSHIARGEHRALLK
T1 sequence (Q96SW2 whole entry): as the sequence (Q96SW2 whole entry) above
T1 sequence (Q16531 whole entry partner): as the sequence (Q16531 whole entry partner) above
BTK, sequence (Q06187 whole entry): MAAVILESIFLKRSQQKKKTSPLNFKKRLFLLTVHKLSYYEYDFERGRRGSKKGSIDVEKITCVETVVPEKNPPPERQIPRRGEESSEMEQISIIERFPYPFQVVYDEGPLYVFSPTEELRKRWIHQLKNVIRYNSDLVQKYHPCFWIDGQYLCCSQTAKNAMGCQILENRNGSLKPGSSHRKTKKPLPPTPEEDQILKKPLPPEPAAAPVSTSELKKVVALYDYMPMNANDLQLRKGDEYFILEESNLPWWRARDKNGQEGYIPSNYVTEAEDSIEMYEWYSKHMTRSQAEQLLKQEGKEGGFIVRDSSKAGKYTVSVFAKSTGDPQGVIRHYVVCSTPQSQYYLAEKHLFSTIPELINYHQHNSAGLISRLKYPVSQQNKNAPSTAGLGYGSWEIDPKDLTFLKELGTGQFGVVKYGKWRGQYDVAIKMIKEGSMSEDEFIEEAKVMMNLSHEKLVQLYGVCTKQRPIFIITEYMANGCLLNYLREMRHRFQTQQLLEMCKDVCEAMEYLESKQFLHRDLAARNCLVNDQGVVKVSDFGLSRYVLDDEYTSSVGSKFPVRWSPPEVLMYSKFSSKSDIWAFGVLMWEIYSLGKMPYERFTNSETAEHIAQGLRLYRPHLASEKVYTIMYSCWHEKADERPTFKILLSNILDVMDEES

| Structure (SMILES) | CD25 Staining Anti-CD3/Anti-CD28 Stimulation (primary human T cells [1]; 1.4 nM) | CD69 Staining Anti-CD3/Anti-CD28 Stimulation (primary human T cells [1]; 1.4 nM) | CD25 Staining Anti-CD3/Anti-CD28 Stimulation (primary human T cells [1]; 37 nM) | CD69 Staining Anti-CD3/Anti-CD28 Stimulation (primary human T cells [1]; 37 nM) | CD25 Staining Anti-CD3/Anti-CD28 Stimulation (primary human T cells [1]; 333 nM) | CD69 Staining Anti-CD3/Anti-CD28 Stimulation (primary human T cells [1]; 333 nM) | IL-2 Secretion Anti-CD3/Anti-CD28 Stimulation (primary human T cells [2]; [3]) | IL-2 Secretion Anti-CD3/Anti-CD28 Stimulation (primary human T cells [2]; [4]) | IL-2 Secretion Anti-CD3/Anti-CD28 Stimulation (primary human T cells [2]; [5]) | EC50 (TMD8 cells) [nM] | EMAX (% viable cells) (TMD8 cells) [%] | EC50 (TMD8 C481S cells) [nM] | EMAX (% viable cells) (TMD8 C481S cells) [%] | expression of CD25 and CD69 compared to baseline (anti-CD3/anti-CD28 stimulation alone) (primary human T cells [1]) | IL-2 secretion compared to baseline (anti-CD3/anti-CD28 stimulation alone) (primary human T cells [2]) | DC50 (Aiolos; Mino cells) [nM] | DC50 (Aiolos; Rec-1 cells) [nM] | DC50 (Ikaros; Mino cells) [nM] | DC50 (Ikaros; Rec-1 cells) [nM] | other results |
| --- | --- | --- | --- | --- | --- | --- | --- | --- | --- | --- | --- | --- | --- | --- | --- | --- | --- | --- | --- | --- |
| C=CC(=O)N1CCC[C@@H](n2nc(-c3ccc(Oc4ccccc4)cc3)c3c(N)ncnc32)C1 [Ibrutinib, reference compound] | 0.92 | 0.89 | 0.74 | 0.74 | 0.22 | 0.22 | 0.84 | 0.85 | 0.34 | 3 | 16 | 1040 | 46 | – | – | – | – | – | – | EC50 (Rec-1 cells; Homo sapiens, Rec1, treatment time 72 h): 268 nM; EMAX (% viable cells) (Rec-1 cells; treatment time 72 h): 68%; EC50 (Mino cells; Homo sapiens): 498 nM; EMAX (% viable cells) (Mino cells): 79% |
| CN1CCN([C@@H]2CCCN(c3cnc(C(N)=O)c(Nc4ccc(C5CCN(C(=O)CCOCCNc6cccc7c6C(=O)N(C6CCC(=O)NC6=O)C7=O)CC5)cc4)n3)C2)C1=O (stereo partly drawn) [Compound 25] | 1.25 | 1.18 | 1.30 | 1.33 | 1.39 | 1.39 | 2.42 | 3.35 | 3.86 | – | – | – | – | unchanged or decreased levels | increased IL-2 secretion but not to the level observed with IMiDs | 10 | 31 | 29 | 63 | – |
| CN1CCN([C@@H]2CCCN(c3cnc(C(N)=O)c(Nc4ccc(N5CCN(CCCCc6cccc7c6CN(C6CCC(=O)NC6=O)C7=O)CC5)cc4)n3)C2)C1=O (stereo partly drawn) [Compound 17] | 1.06 | 1.05 | 1.34 | 1.23 | 1.11 | 1.12 | 1.59 | 3.14 | 2.92 | 0.6 | 7 | 3.71 | 15 | – | – | – | – | – | – | BTK Remaining (% relative to vehicle) (BTK; 10 mg/kg, 14 days of dosing): 20%; BTK Remaining (% relative to vehicle) (BTK; 30 mg/kg, 14 days of dosing): 15%; BTK Remaining (% relative to vehicle) (BTK; 30 mg/kg, 21 days of dosing): 7%; Tumor Growth Inhibition (relative to vehicle) (TMD8 tumor cells; 10 mg/kg, 14 days of dosing): 14%; Tumor Growth Inhibition (relative to vehicle) (TMD8 tumor cells; 30 mg/kg, 14 days of dosing): 66%; Tumor Growth Inhibition (relative to vehicle) (TMD8 tumor cells; 30 mg/kg, 21 days of dosing): 81% |
| CN1CCN([C@@H]2CCCN(c3cnc(C(N)=O)c(Nc4ccc5c(c4)CCN(C4CN(c6ccc7c(c6)C(=O)N(C6CCC(=O)NC6=O)C7=O)C4)C5)n3)C2)C1=O (stereo partly drawn) [Compound 30] | 1.01 | 1.01 | 1.14 | 1.10 | 1.17 | 1.16 | 1.59 | 3.82 | 3.95 | – | – | – | – | unchanged or decreased levels | increased IL-2 secretion but not to the level observed with IMiDs | 10 | 34 | 1100 | 1000 | – |
